Results: patent US20250034150A1, “BTK INHIBITORS” (BIOGEN MA INC., priority 2021, published 2025)
Structures can show the parent of a compound that is named as a salt.

Molecular target: T1, BTK (Homo sapiens, UniProt Q06187)
T1 construct: purchased Upstate 14-552
Assay: In Vitro BTK Kinase Assay: Btk-PolyGAT-LS Assay
Assay type: biochemical
Conditions: active BTK enzyme 0.25 nM, polyGAT 100 nM, 30 minutes, TRF readout; read-out: In Vitro BTK Kinase Assay IC50 Score
Description: The purpose of the BTK in vitro assay is to determine compound potency against BTK through the measurement of IC50. Compound inhibition is measured after monitoring the amount of phosphorylation of a fluorescein-labeled polyGAT peptide (Invitrogen PV3611) in the presence of active BTK enzyme (Upstate 14-552), ATP, and inhibitor. The BTK kinase reaction was done in a black 96 well plate (costar 3694). For a typical assay, a 24 μL aliquot of a ATP/peptide master mix (final concentration; ATP […], polyGAT 100 nM) in kinase buffer (10 mM Tris-HCl pH 7.5, 10 mM MgCl2, 200 μM […], 5 mM DTT, 0.01% Triton X-100, and 0.2 mg/ml casein) is added to each well. Next, […] of a 4-fold, 40× compound titration in 100% DMSO solvent is added, followed by adding 15 μL of BTK enzyme mix in 1× kinase buffer (with a final concentration of 0.25 nM). The assay is incubated for 30 minutes before being stopped with 28 μL of a 50 mM EDTA solution. Aliquots (5 uL) of the kinase reaction are transferred to a low volume white 384 well plate (Coming 3674), and 5 μL of a 2× detection buffer (Invitrogen PV3574, with 4 nM Tb—PY20 antibody, Invitrogen PV3552) is added. The plate is covered and incubated for 45 minutes at room temperature. Time resolved fluorescence (TRF) on Molecular Devices M5 (332 nm excitation; 488 nm emission; 518 nm fluorescein emission) is measured. IC50 values are calculated using a four parameter fit with 100% enzyme activity determined from the DMSO control and 0% activity from the EDTA control.

T1 sequence (Q06187 whole entry): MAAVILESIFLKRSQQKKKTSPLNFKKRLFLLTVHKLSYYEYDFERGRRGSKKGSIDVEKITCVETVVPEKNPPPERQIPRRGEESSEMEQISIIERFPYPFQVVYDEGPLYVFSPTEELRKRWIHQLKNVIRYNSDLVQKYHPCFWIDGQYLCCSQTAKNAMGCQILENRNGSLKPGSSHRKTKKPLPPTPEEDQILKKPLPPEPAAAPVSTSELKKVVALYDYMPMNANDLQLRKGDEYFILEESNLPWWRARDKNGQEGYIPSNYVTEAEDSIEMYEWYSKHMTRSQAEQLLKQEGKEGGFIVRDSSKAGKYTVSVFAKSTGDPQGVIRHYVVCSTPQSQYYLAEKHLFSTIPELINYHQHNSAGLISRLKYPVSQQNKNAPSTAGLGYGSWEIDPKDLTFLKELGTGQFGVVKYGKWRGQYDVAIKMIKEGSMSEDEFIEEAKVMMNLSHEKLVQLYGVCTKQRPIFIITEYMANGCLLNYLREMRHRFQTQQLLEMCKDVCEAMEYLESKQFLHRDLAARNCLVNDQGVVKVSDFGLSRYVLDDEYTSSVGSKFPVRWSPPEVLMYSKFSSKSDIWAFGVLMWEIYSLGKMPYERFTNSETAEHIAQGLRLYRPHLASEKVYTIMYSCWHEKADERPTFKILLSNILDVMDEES

IC50	Compound
1 to 10 nM	Cn1cc(-c2cn3nccc3c(-c3ccc(CNC(=O)c4ccn(C(C)(C)C)n4)c(F)c3F)n2)cn1 [Example 91, 1-(tert-butyl)-N-(2,3-difluoro-4-(6-(1-methyl-1H-pyrazol-4-yl)pyrazolo[1,5-a]pyrazin-4-yl)benzyl)-1H-pyrazole-3-carboxamide]
10 to 1000 nM	Cn1cc(-c2cc3nccn3c(-c3ccc(CNC(=O)c4nnc(C(C)(C)C)o4)cc3)n2)cn1 [Example 61, 5-(tert-butyl)-N-(4-(7-(1-methyl-1H-pyrazol-4-yl)imidazo[1,2-c]pyrimidin-5-yl)benzyl)-1,3,4-oxadiazole-2-carboxamide]
< 1 nM	Cn1cc(-c2cn3nccc3c(-c3ccc(CNC(=O)c4noc(C(C)(C)C)n4)c(F)c3)n2)cn1 [Example 117, 5-(tert-butyl)-N-(2-fluoro-4-(6-(1-methyl-1H-pyrazol-4-yl)pyrazolo[1,5-a]pyrazin-4-yl)benzyl)-1,2,4-oxadiazole-3-carboxamide]
10 to 1000 nM	Cc1cc(-c2nc(N3CCN(C)CC3)cn3nccc23)ccc1CNC(=O)c1cnn(C(C)(C)C)n1 [Example 124, 2-(tert-butyl)-N-(2-methyl-4-(6-(4-methylpiperazin-1-yl)pyrazolo[1,5-a]pyrazin-4-yl)benzyl)-2H-1,2,3-triazole-4-carboxamide trifluoroacetate]
1000 to 10000 nM	Cn1cc(-c2cn3nccc3c(N3CCC(C)(CNC(=O)c4cn(C(C)(C)C)nn4)C3)n2)cn1 (stereo not drawn) [Example 49, 1-(tert-butyl)-N-((3-methyl-1-(6-(1-methyl-1H-pyrazol-4-yl)pyrazolo[1,5-a]pyrazin-4-yl)pyrrolidin-3-yl)methyl)-1H-1,2,3-triazole-4-carboxamide]
1000 to 10000 nM	CCCN1CCN(CC2CCN(c3nc(-c4cnn(C)c4)cn4nccc34)CC2)C(=O)C1 [Example 170, 1-((1-(6-(1-methyl-1H-pyrazol-4-yl)pyrazolo[1,5-a]pyrazin-4-yl)piperidin-4-yl)methyl)-4-propylpiperazin-2-one hydrochloride]
10 to 1000 nM	Cn1cc(-c2cn3nccc3c(N3C[C@H]4CC[C@@H](C3)[C@H]4CNC(=O)c3noc(C(C)(C)C)n3)n2)cn1 [Example 164, 5-(tert-butyl)-N-(((1R,5S,8s)-3-(6-(1-methyl-1H-pyrazol-4-yl)pyrazolo[1,5-a]pyrazin-4-yl)-3-azabicyclo[3.2.1]octan-8-yl)methyl)-1,2,4-oxadiazole-3-carboxamide]
10 to 1000 nM	Cn1cc(-c2cn3nccc3c(N3CCC(CN4CCN(CC5CCC5)CC4=O)CC3)n2)cn1 [Example 169, 4-(Cyclobutylmethyl)-1-((1-(6-(1-methyl-1H-pyrazol-4-yl)pyrazolo[1,5-a]pyrazin-4-yl)piperidin-4-yl)methyl)piperazin-2-one]
10 to 1000 nM	CC(C)CN1CCN(CC2CCN(c3nc(-c4cnn(C)c4)cn4nccc34)CC2)C(=O)C1 [Example 168, 4-isobutyl-1-((1-(6-(1-methyl-1H-pyrazol-4-yl)pyrazolo[1,5-a]pyrazin-4-yl)piperidin-4-yl)methyl)piperazin-2-one]
10 to 1000 nM	C[C@@H]1CN(c2nc(-c3cnn(C)c3)cn3nccc23)CC[C@H]1CNC(=O)c1noc(C2(C)CC2)n1 (single isomer, unassigned) [Example 145]
10 to 1000 nM	Cn1cc(-c2cn3nccc3c(N3CC[C@H](CNC(=O)c4noc(C(C)(C)C)n4)C(F)(F)C3)n2)cn1 (single isomer, unassigned) [Example 159]
10 to 1000 nM	Cc1cc(-c2nc(-c3cnn(C)c3)cn3nccc23)ccc1CN1CCN(C2COC2)C(C)C1=O (stereo not drawn) [Example 37, 3-methyl-1-(2-methyl-4-(6-(1-methyl-1H-pyrazol-4-yl)pyrazolo[1,5-a]pyrazin-4-yl)benzyl)-4-(oxetan-3-yl)piperazin-2-one]
10 to 1000 nM	Cc1cc(-c2nc(N3CCOCC3)cn3nccc23)ccc1CNC(=O)c1cnn(C(C)(C)C)n1 [Example 123, 2-(tert-butyl)-N-(2-methyl-4-(6-morpholinopyrazolo[1,5-a]pyrazin-4-yl)benzyl)-2H-1,2,3-triazole-4-carboxamide]
1000 to 10000 nM	CC(C)(C)n1ccc(C(=O)NCc2ccc(-c3nc(N4CCOCC4)cn4nccc34)cc2)n1 [Example 28, 1-(tert-butyl)-N-(4-(6-morpholinopyrazolo[1,5-a]pyrazin-4-yl)benzyl)-1H-pyrazole-3-carboxamide]
1 to 10 nM	Cc1cc(-c2nc(N3CCOCC3)cn3nccc23)ccc1CNC(=O)c1noc(C2(C)CC2)n1 [Example 126, N-(2-methyl-4-(6-morpholinopyrazolo[1,5-a]pyrazin-4-yl)benzyl)-5-(1-methylcyclopropyl)-1,2,4-oxadiazole-3-carboxamide]
10 to 1000 nM	CN(C)c1cn2nccc2c(-c2ccc(CNC(=O)c3noc(C(C)(C)C)n3)cc2)n1 [Example 135, 5-(tert-butyl)-N-(4-(6-(dimethylamino)pyrazolo[1,5-a]pyrazin-4-yl)benzyl)-1,2,4-oxadiazole-3-carboxamide]
10 to 1000 nM	C[C@H]1C[C@H](CNC(=O)c2cn(C(C)(C)C)nn2)CCN1c1nc(-c2cnn(C)c2)cn2nccc12 (single isomer, unassigned) [Example 140]
10 to 1000 nM	C[C@H]1CN(c2nc(-c3cnn(C)c3)cn3nccc23)CC[C@H]1CNC(=O)c1noc(C2(C)CC2)n1 (single isomer, unassigned) [Example 147]
10 to 1000 nM	Cn1cc(-c2cn3nccc3c(N3CCCC(CNC(=O)c4cn(C(C)(C)C)nn4)CC3)n2)cn1 (stereo not drawn) [Example 167, 1-(tert-butyl)-N-((1-(6-(1-methyl-1H-pyrazol-4-yl)pyrazolo[1,5-a]pyrazin-4-yl)azepan-4-yl)methyl)-1H-1,2,3-triazole-4-carboxamide]
10 to 1000 nM	C[C@@H]1C[C@H](CNC(=O)c2cn(C(C)(C)C)nn2)CCN1c1nc(-c2cnn(C)c2)cn2nccc12 (single isomer, unassigned) [Example 141]
1 to 10 nM	Cn1cc(-c2cn3nccc3c(-c3ccc(CNC(=O)c4ccn(C(C)(C)C)n4)c(C(F)F)c3)n2)cn1 [Example 103, 1-(tert-butyl)-N-(2-(difluoromethyl)-4-(6-(1-methyl-1H-pyrazol-4-yl)pyrazolo[1,5-a]pyrazin-4-yl)benzyl)-1H-pyrazole-3-carboxamide]
10 to 1000 nM	Cc1cc(-c2nc(-c3cnn(C)c3)cn3nccc23)ccc1CN1CCN(CC2COC2)CC1=O [Example 32, 1-(2-methyl-4-(6-(1-methyl-1H-pyrazol-4-yl)pyrazolo[1,5-a]pyrazin-4-yl)benzyl)-4-(oxetan-3-ylmethyl)piperazin-2-one]
10 to 1000 nM	Cn1cc(-c2cn3nccc3c(N3CCC4(CC(NC(=O)c5noc(C(C)(C)C)n5)C4)C3)n2)cn1 (single isomer, unassigned) [Example 53, 5-(tert-butyl)-N-((2r,4s)-6-(6-(1-methyl-1H-pyrazol-4-yl)pyrazolo[1,5-a]pyrazin-4-yl)-6-azaspiro[3.4]octan-2-yl)-1,2,4-oxadiazole-3-carboxamide]
10 to 1000 nM	CN1CCN(c2cn3nccc3c(-c3ccc(CNC(=O)c4nnc(C(C)(C)C)o4)c(F)c3)n2)CC1 [Example 127]
1 to 10 nM	Cc1cc(-c2nc(N3CCN(C)CC3)cn3nccc23)ccc1CNC(=O)c1noc(C2(C)CC2)n1 [Example 131, N-(2-methyl-4-(6-(4-methylpiperazin-1-yl)pyrazolo[1,5-a]pyrazin-4-yl)benzyl)-5-(1-methylcyclopropyl)-1,2,4-oxadiazole-3-carboxamide trifluoroacetate]
10 to 1000 nM	Cn1cc(-c2cn3nccc3c(-c3cc(F)c(CNC(=O)c4ccn(C(C)(C)C)n4)cc3F)n2)cn1 [Example 96, 1-(tert-butyl)-N-(2,5-difluoro-4-(6-(1-methyl-1H-pyrazol-4-yl)pyrazolo[1,5-a]pyrazin-4-yl)benzyl)-1H-pyrazole-3-carboxamide]
1000 to 10000 nM	Cn1cc(-c2cn3nccc3c(N3CCC(C)(CNC(=O)c4cnc(C(C)(C)C)o4)C3)n2)cn1 (stereo not drawn) [Example 50, 2-(tert-butyl)-N-((3-methyl-1-(6-(1-methyl-1H-pyrazol-4-yl)pyrazolo[1,5-a]pyrazin-4-yl)pyrrolidin-3-yl)methyl)oxazole-5-carboxamide]

System: CD69 expression on CD19+ B cells in human whole blood
Assay: In Vitro whole blood CD69 Assay
Assay type: cell-based
Conditions: B-cell; human heparinized whole blood, anti-human IgD stimulation overnight, CD19+ B cells, flow cytometry; read-out: In Vitro HWB CD69 Assay IC50 Score
Description: Human heparinized venous blood from health donors was aliquoted into 96-well plate and “spiked” with serial dilutions of formula I compounds in DMSO or with DMSO without drug. The final concentration of DMSO in all wells was 0.1%. The plate was incubated at 37° C. for 30 min. Drug-containing samples were stimulated with 0.1 μg/mL mouse anti-human IgD-dextran (1A62) or 20 μg/mL polyclonal rabbit F(ab′)2 anti-human IgD. Phosphate-buffered saline (PBS) was added to the negative control unstimulated sample and the plates were incubated overnight (18 to 22 hours) at 37° C. Cells were stained with fluorochrome-conjugated anti-CD19 and anti-CD69 antibodies. Lyse/fix solution was used to remove red blood cells by hypotonic lysis and to fix the remaining cells, which were then analyzed by flow cytometry. CD19+ B cells were gated and analyzed for CD69 expression.

IC50	Compound
1000 to 10000 nM	Cn1cc(-c2cn3nccc3c(-c3ccc(CNC(=O)c4ccn(C(C)(C)C)n4)c(F)c3F)n2)cn1 [Example 91, 1-(tert-butyl)-N-(2,3-difluoro-4-(6-(1-methyl-1H-pyrazol-4-yl)pyrazolo[1,5-a]pyrazin-4-yl)benzyl)-1H-pyrazole-3-carboxamide]
1000 to 10000 nM	Cn1cc(-c2cc3nccn3c(-c3ccc(CNC(=O)c4nnc(C(C)(C)C)o4)cc3)n2)cn1 [Example 61, 5-(tert-butyl)-N-(4-(7-(1-methyl-1H-pyrazol-4-yl)imidazo[1,2-c]pyrimidin-5-yl)benzyl)-1,3,4-oxadiazole-2-carboxamide]
< 1000 nM	Cn1cc(-c2cn3nccc3c(-c3ccc(CNC(=O)c4noc(C(C)(C)C)n4)c(F)c3)n2)cn1 [Example 117, 5-(tert-butyl)-N-(2-fluoro-4-(6-(1-methyl-1H-pyrazol-4-yl)pyrazolo[1,5-a]pyrazin-4-yl)benzyl)-1,2,4-oxadiazole-3-carboxamide]
